Earlier results in patent publication US20100221818A1, “Device for the extemporaneous preparation of active preparations” (ALAXIA, priority 2009, published 2010).

Conditions: in the absence of peroxidase and/or of hydrogen peroxide

Q: For `N#CSO` [hypothiocyanite], which half-life is on record?
A: The half-life was “approximately 24 hours”.
